Marks after values point to notes of the source that are not given here.
What was measured:
Assay type in all cases: cell-based
L. monocytogenes [1] = assay: L. monocytogenes kill in cold salt/acid/surfactant solutions; details: for L. monocytogenes, Time 4 Hours / L. monocytogenes, Time 0: cold; for Population at 4 hours: concentrations stated in the solution, no added acid, average of two runs where starred
Experimental: To study chilling brine application of the current embodiment, tests were run on 17% by weight solutions of formulas consisting of between 0.3% and 6.0% citric acid, between 50 and 500 ppm SLS, and between 94% and 99.7% sodium chloride. Test solutions were cooled to −7° C. and inoculated with several strains of L. monocytogenes.
An experiment was run to determine if solutions containing sodium chloride, sodium lauryl sulfate, and various acids would kill L. monocytogenes at cold temperatures. […] A 1.0 ml aliquot of this suspension was added to 100 ml of cold (−7° C.+2° C.) test solution and mixed well, providing an initial inoculum of 10^3 CFU/ml. The test solutions were incubated at −7° C.+/−2° C. for the duration of the experiment. At intervals of 0, 4, and 24 hours the L. monocytogenes populations in the test solutions were determined on Modified Oxford agar (MOX). MOX plates were incubated at 35° C.+/−2° C. for approximately 48 hours. Colonies were then counted and compared to the initial inoculum counts.
Each test solution was a 17% by weight solution of the listed formula prepared in soft water.
In another experiment, 17% by weight solutions of formulas containing various levels of sodium chloride, citric acid, and sodium lauryl sulfate were tested for effectiveness in killing L. monocytogenes at cold temperatures. The same test procedure was used as described above, except test solutions were plated on MOX with a Thin Agar Overlay of TSA (to aid in the recovery of injured cells).
In another experiment, two sets of solutions were tested. The first set (samples 1-12 in Table 10 below) was prepared in hard tap water and contained about 17.0% by mass of the formulation. These samples were inoculated with 10^3 CFU/ml L. monocytogenes by the same procedure as described above. A second set of samples was prepared from brine taken from a ready-to-eat meat processing operation. The recirculated brine had been used to chill packaged meat for one week. After a week of use the brine typically contains various types of aerobic psychotropic and mesophilic bacteria. This experiment was done in order to determine if the additives would kill the microorganisms naturally occurring in actual process brine from a plant. Since the spent chill brine samples already contained NaCl citric acid and/or SLS was added to provide an effective concentration of additive. One set of these samples (samples 13-17) were inoculated with 10^3 L. monocytogenes and the other set (samples 18-22) contained only the naturally occurring organisms in the spent chill brine. […] Other antimicrobials, such as quaternary ammonium compounds can lose significant activity in hard water, often necessitating further additives, such as EDTA as a chelating agent, to maintain antimicrobial activity.
Another set of experiments was done in order to determine the effectiveness of different acids and different types of surfactants in the antimicrobial salt formulations. In one experiment, test solutions containing ˜17% by weight of formulas containing various levels of sodium chloride, 100 ppm sodium lauryl sulfate, and various levels of different acids were tested for effectiveness in killing L. monocytogenes at cold temperatures. The same test procedure was used as described above (test solutions were plated on MOX TAL (Modified Oxford Medium with a Thin Agar Layer) with TSA). The controls were a solution of pure NaCl, a solution of a blend of 100 ppm SLS in NaCl, and a solution of a blend of 0.5% citric acid, 100 ppm SLS, and 99.5% NaCl.

[2] = system: Escherichia coli ATCC 11229; assay: E. coli kill in acid/SLS solutions with and without salt; details: for % Kill of E. Coli: 0.6409 grams malic acid and 0.0107 grams sodium lauryl sulfate per liter, with 107.0 grams of the listed salt or without; for kill of E. coli by solution containing only the salt: only the salt and no other ingredient
Experimental: Ten percent by weight solutions were prepared of a formula of 0.6% citric or malic acid, 100 ppm SLS, and 99.4% sodium chloride. Solutions were also prepared containing an identical concentration of acid and SLS but no sodium chloride. […] A 1.0 ml aliquot of this suspension was added to 100 ml of test solution at room temperature and mixed well, providing an initial inoculum of 10^3 CFU/ml. After 30 minutes, the E. coli populations were enumerated by plating on tryptic soy agar (TSA), making serial dilutions as necessary in BPBW. Plates were incubated at 35° C.+/−2° C. for approximately 24 hours. Colonies were then counted and compared to the initial inoculum counts.
A test was run to determine if salts other than sodium chloride would show a synergistic antimicrobial effect with an acid and sodium lauryl sulfate. Solutions containing 0.6409 grams malic acid and 0.0107 grams sodium lauryl sulfate per liter were prepared with and without 107.0 grams of various salts (added on an anhydrous basis). Solutions were inoculated with E. coli described above and the amount of bacterial kill was measured to determine if the added salt caused an increase in the effectiveness of the acid/surfactant active ingredients.

L. monocytogenes [3] = assay: L. monocytogenes cocktail challenge of surfactant/salt solutions at 2° C.; details: after 4 hours in solution at 2° C.
Experimental: Tests were generally run according to the following procedure:
(§1) 1. Inoculate a separate tube containing approximately 10 ml of Brain Heart infusion (BHI) broth with the following L. monocytogenes strains: H2446 (CDC Global Standard), Scott A (serotype 4b), 12243 (serotype 1/2a), and two strains isolated from the environment of a cooked meat and poultry facility, designated WP1, and WP4. Incubate the tubes at least 5 days at 7-10° C.+/−2° C. 2. Assume the growth to be 10^9 cfu/ml. Serially dilute each culture in cold (˜7° C.). Butterfield's Phosphate Buffered Water (PBW) to 10^8 cfu/ml (1:10). Since five cultures of L. monocytogenes are being used as a cocktail, begin the dilution series using 2.20 ml of each culture added to 99 ml of PBW. 3. Plate (−6, −7, −8) the diluted culture to get the starting count of the inoculum on Modified Oxford medium (MOX) using a thin agar overlay (TAL) technique (overlay with Trypticase Soy Agar [TSA]) to revive injured cells. 4. Add 1 ml of the diluted cocktail to 100 ml of cold test solution. 5. Mix the solutions well. 6. Determine the L. monocytogenes population at time 0 and 4 hours. Plate −1 (0.1 ml on 1 plate), −2, −3, and −4 dilutions using spread plates on MOX TAL with TSA. 7. Incubate the test solutions at test temperature for the duration of the experiment. 8. Incubate the MOX TAL with TSA plates at 20° C.+/−2° C. for 72+/−3 hours. Count representative colonies, which are black, and multiply by the dilution factor.

L. monocytogenes [4] = assay: L. monocytogenes challenge in beef plant chill brine at 4° C.; details: after 4 hours at 4° C.; surfactant added to beef plant brine, approximately 17% sodium chloride
Experimental: as §1
Several tests were carried out to determine the effectiveness of embodiments according to the invention in meat processing chill brines. In one experiment, brine was taken at the end of a production week from a brine chiller used in a ready to eat, cooked beef production line. The sodium chloride concentration in this brine was approximately 17%. Samples of the brine with and without added surfactant were inoculated with a cocktail of L. monocytogenes as per the procedure described above, incubated at 4° C. for four hours, and then plated to determine L. monocytogenes survival.

[5] = 17% by weight of formula of 99.7% sodium chloride, 0.3% citric acid, 500 ppm of listed surfactant
[6] = Table 2, different salts and salt concentrations

Compound: dodecyl diphenyl oxide disulfonate
- L. monocytogenes, Time 4 Hours (L. monocytogenes [1]; [5]): 0 CFU/ml
- L. monocytogenes, Time 0 (L. monocytogenes [1]; [5]): 0 CFU/ml

Compound: O=S(=O)([O-])[O-].[K+].[K+] [Potassium sulfate]
- % Kill of E. Coli [2]: 34%
- kill of E. coli by solution containing only the salt [2]: no bacterial kill

Compound: O=S(=O)([O-])[O-].[Na+].[Na+] [Sodium sulfate]
- % Kill of E. Coli [2]: 87%
- kill of E. coli by solution containing only the salt [2]: no bacterial kill

Compound: CC(=O)[O-].[K+] [20% Potassium Acetate, Potassium Acetate, reference compound]
- L. mono count (L. monocytogenes [3]; [6]): 4.2 × 10^5 cfu/mL

Compound: sodium linear alkyl-benzene sulfonate
- L. monocytogenes, Time 4 Hours (L. monocytogenes [1]; [5]): 0 CFU/ml
- L. monocytogenes, Time 0 (L. monocytogenes [1]; [5]): 490 CFU/ml

Compound: sodium olefin sulfonate [25 ppm sodium olefin sulfonate]
- L. mono count (L. monocytogenes [4]): 60 cfu/mL

Compound: lauramine oxide
- L. monocytogenes, Time 4 Hours (L. monocytogenes [1]; [5]): 0 CFU/ml
- L. monocytogenes, Time 0 (L. monocytogenes [1]; [5]): 2 CFU/ml

Compound: fatty alkanolaminde [12.5 ppm fatty alkanolaminde]
- L. mono count (L. monocytogenes [4]): 40 cfu/mL

Compound: [Cl-].[Na+] [sodium chloride, reference compound]
- log reduction of the L. monocytogenes over a 24-hour period (L. monocytogenes [1]; brine of sodium chloride alone, 24-hour period): < 1 log
- % Kill of E. Coli [2]: 78%
- kill of the test microorganisms ([2]; 10% solution of pure sodium chloride): does not provide any significant kill

Compound: fatty alkanolaminde [25 ppm fatty alkanolaminde]
- L. mono count (L. monocytogenes [4]): <10 cfu/mL

Compound: [Ca+2].[Cl-].[Cl-] [Calcium chloride]
- % Kill of E. Coli [2]: 55%
- kill of E. coli by solution containing only the salt [2]: 26%

Compound: alpha-olefin sulfonate
- L. monocytogenes, Time 4 Hours (L. monocytogenes [1]; [5]): 0 CFU/ml
- L. monocytogenes, Time 0 (L. monocytogenes [1]; [5]): 370 CFU/ml

Compound: O=S(=O)([O-])[O-].[Mg+2] [Magnesium sulfate]
- % Kill of E. Coli [2]: 93%
- kill of E. coli by solution containing only the salt [2]: 10%

Compound: polyoxyethylene-polyoxypropylene block polymer
- L. monocytogenes, Time 4 Hours (L. monocytogenes [1]; [5]): 610 CFU/ml
- L. monocytogenes, Time 0 (L. monocytogenes [1]; [5]): 820 CFU/ml

Compound: nonylphenol ethoxylate [25 ppm nonylphenol ethoxylate]
- L. mono count (L. monocytogenes [4]): <10 cfu/mL

Compound: sodium salt of sulfonated oleic acid
- L. monocytogenes, Time 4 Hours (L. monocytogenes [1]; [5]): 0 CFU/ml
- L. monocytogenes, Time 0 (L. monocytogenes [1]; [5]): 240 CFU/ml

Compound: [Cl-].[K+] [Potassium chloride]
- % Kill of E. Coli [2]: 18%
- kill of E. coli by solution containing only the salt [2]: no bacterial kill

Compound: sodium olefin sulfonate [12.5 ppm sodium olefin sulfonate]
- L. mono count (L. monocytogenes [4]): 110 cfu/mL

Compound: sodium xylene sulfonate
- L. monocytogenes, Time 4 Hours (L. monocytogenes [1]; [5]): 820 CFU/ml
- L. monocytogenes, Time 0 (L. monocytogenes [1]; [5]): 910 CFU/ml

Compound: nonylphenol ethoxylate
- L. monocytogenes, Time 4 Hours (L. monocytogenes [1]; [5]): 0 CFU/ml
- L. monocytogenes, Time 0 (L. monocytogenes [1]; [5]): 460 CFU/ml

Compound: sulfonated oleic acid, Na salt [50 ppm sulfonated oleic acid, Na salt]
- L. mono count (L. monocytogenes [3]; Table 1): 1.3 × 10^5 cfu/mL

Compound: alkylpolyglucoside
- L. monocytogenes, Time 4 Hours (L. monocytogenes [1]; [5]): 0 CFU/ml
- L. monocytogenes, Time 0 (L. monocytogenes [1]; [5]): 280 CFU/ml

Compound: [Cl-].[Cl-].[Mg+2] [Magnesium chloride]
- % Kill of E. Coli [2]: 56%
- kill of E. coli by solution containing only the salt [2]: 61%

Compound: fatty alkanolamide
- L. monocytogenes, Time 4 Hours (L. monocytogenes [1]; [5]): 0 CFU/ml
- L. monocytogenes, Time 0 (L. monocytogenes [1]; [5]): 470 CFU/ml

Compound: [Cl-].[Na+] [20% NaCl (control), sodium chloride, reference compound]
- Population at 4 hours (L. monocytogenes [1]): 4.32 log cfu/mL
- L. mono count (L. monocytogenes [3]; Table 1): 1.0 × 10^5 cfu/mL
- L. mono count (L. monocytogenes [3]; [6]): 4.0 × 10^5 cfu/mL

Compound: C12(branched) sodium diphenyl oxide disulfonate
- L. mono count (L. monocytogenes [3]; [6]): 3.1 × 10^4 cfu/mL

Compound: CC(=O)[O-].[Na+] [20% Sodium Acetate, Sodium Acetate, reference compound]
- L. mono count (L. monocytogenes [3]; [6]): 3.0 × 10^4 cfu/mL

Compound: [Cl-].[Na+] [Salt control, reference compound]
- L. monocytogenes, Time 4 Hours (L. monocytogenes [1]; ˜17% solution of NaCl, 100 ppm SLS and listed acid to pH ˜3.6): 1380 CFU/ml
- L. monocytogenes, Time 0 (L. monocytogenes [1]; ˜17% solution of NaCl, 100 ppm SLS and listed acid to pH ˜3.6, MOX TAL): 850 CFU/ml

Compound: sodium linear alkylbenzene [25 ppm sodium linear alkylbenzene]
- L. mono count (L. monocytogenes [4]): <10 cfu/mL

Compound: O=C[O-].[Na+] [20% Sodium Formate, Sodium Formate, reference compound]
- L. mono count (L. monocytogenes [3]; [6]): 3.6 × 10^5 cfu/mL

Compound: CCCCCCCCCCCCOS(=O)(=O)[O-].[Na+] [50 ppm SLS (no NaCl), sodium lauryl sulfate]
- Population at 4 hours (L. monocytogenes [1]): 3.90* log cfu/mL

Compound: alkyl polyglucoside [50 ppm alkyl polyglucoside]
- L. mono count (L. monocytogenes [3]; Table 1): 9.6 × 10^4 cfu/mL

From patent US20110212235A1, “ANTIMICROBIAL SALT SOLUTIONS FOR CHEESE PROCESSING APPLICATIONS” (priority 2006, published 2011)
